The text below walks through data of ChEMBL document CHEMBL5113476, “The protective effects of natural product tunicatachalcone against neuroinflammation via targeting RIPK2 in microglia BV-2 cells stimulated by LPS” (Bioorg Med Chem, 2022).

Usually Kd stands for the constant that tells how readily two partners part at equilibrium.

Series [1] concerns the target T1, Receptor-interacting serine/threonine-protein kinase 2 (Homo sapiens, UniProt O43353). Put plainly: Binding affinity to recombinant RIPK2 (unknown origin) measured by microscale thermophoresis (MST) assay. In general terms: MST reads how a fluorescent partner responds to local heating, with and without ligand.
Series [2] has as its system BV-2. Put plainly: Anti-neuroinflammatory activity in mouse BV-2 cells assessed as inhibition of LPS-induced NO production at 5 to 20 uM measured after 24 hrs. Format: functional, cell-based. The conditions noted are these: dose 5-20 µM, DDE = dose-dependent effect.
Series [3] concerns the target Receptor-interacting serine/threonine-protein kinase 2 (Mus musculus) (UniProt P58801). Put plainly: Binding affinity to RIPK2 in mouse BV-2 cells measured by Cellular thermal shift assay (CETSA). Format: cell-based.
For series [4], the system named is BV-2. Put plainly: Anti-neuroinflammatory activity in mouse BV-2 cells assessed as reduction in LPS-stimulated IL-6 production at 5 to 20 uM measured after 8 hrs by ELISA. Format: functional, cell-based. The note with it: dose 5-20 µM, DDE = dose-dependent effect. On the technique in general: ELISA stands for enzyme-linked immunosorbent assay.
The test system of series [5] is BV-2. Put plainly: Anti-neuroinflammatory activity in mouse BV-2 cells assessed as reduction in LPS-stimulated TNF-alpha production at 5 to 20 uM measured after 4 hrs by ELISA. The class given is functional, cell-based. The note with it: dose 5-20 µM, DDE = dose-dependent effect.
For series [6], the system named is BV-2. Put plainly: Cytotoxicity against mouse BV-2 cells at 12.5 to 50 uM measured after 24 hrs by MTT assay. The class given is toxicity, cell-based. The conditions noted are these: bv-2, 24 h, dose 12.5-50 µM.
The target in series [7] is T1, Receptor-interacting serine/threonine-protein kinase 2. Put plainly: Binding affinity to recombinant RIPK2 (unknown origin) measured by surface plasmon resonance analysis. Background: In SPR one partner is held on a chip, and binding of the other changes the refractive index at the surface.

Activity calls are given as the source filed them. No cut-off for these calls is given here.

T1 sequence (O43353 whole entry): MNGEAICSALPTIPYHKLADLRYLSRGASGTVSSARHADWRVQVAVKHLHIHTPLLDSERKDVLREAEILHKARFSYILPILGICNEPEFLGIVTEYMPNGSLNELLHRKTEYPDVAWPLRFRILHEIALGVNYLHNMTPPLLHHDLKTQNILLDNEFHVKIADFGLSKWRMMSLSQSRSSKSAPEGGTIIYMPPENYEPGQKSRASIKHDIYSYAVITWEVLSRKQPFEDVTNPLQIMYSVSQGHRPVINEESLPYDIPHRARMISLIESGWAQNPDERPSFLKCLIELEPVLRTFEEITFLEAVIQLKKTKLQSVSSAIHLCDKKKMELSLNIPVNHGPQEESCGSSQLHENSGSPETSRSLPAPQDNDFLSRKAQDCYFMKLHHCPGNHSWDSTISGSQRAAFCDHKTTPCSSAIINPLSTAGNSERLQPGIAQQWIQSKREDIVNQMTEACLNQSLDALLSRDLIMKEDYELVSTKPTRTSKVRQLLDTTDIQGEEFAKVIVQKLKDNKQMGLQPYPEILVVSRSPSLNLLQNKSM
Chain of Receptor-interacting serine/threonine-protein kinase 2 (Mus musculus) (P58801 whole entry): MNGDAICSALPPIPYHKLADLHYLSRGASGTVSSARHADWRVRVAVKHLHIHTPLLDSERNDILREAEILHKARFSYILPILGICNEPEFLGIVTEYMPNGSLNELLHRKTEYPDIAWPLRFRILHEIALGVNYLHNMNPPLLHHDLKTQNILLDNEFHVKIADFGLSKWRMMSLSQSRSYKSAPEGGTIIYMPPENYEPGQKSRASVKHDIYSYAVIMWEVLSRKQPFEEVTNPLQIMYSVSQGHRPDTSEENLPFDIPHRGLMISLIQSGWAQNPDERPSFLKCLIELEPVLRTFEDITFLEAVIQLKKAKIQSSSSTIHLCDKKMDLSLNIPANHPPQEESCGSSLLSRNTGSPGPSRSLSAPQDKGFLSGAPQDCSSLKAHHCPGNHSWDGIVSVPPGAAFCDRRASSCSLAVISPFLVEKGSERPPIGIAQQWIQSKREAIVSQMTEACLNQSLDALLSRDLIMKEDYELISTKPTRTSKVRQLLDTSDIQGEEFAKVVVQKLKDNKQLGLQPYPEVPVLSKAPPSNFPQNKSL

Take `COC1=CC(=O)C(CC=C(C)C)(CC=C(C)C)C(=O)/C1=C(O)/C=C/c1ccccc1`: the figures for the Kd in series [1] and in series [7] were 1 µM and 5.36 µM, respectively. The Activity result was “Dde” in the series on BV-2 [2], “Dde” in the series on BV-2 [4], “Dde” in the series on BV-2 [5] and “Non-Toxic” with BV-2 [6]. The outcome in series [3] was Active.
